In patent US20220202852A1, “METHODS AND COMPOSITIONS OF AQUEOUS HYPOBROMOUS ACID FOR THE TREATMENT AND PREVENTION OF INFLAMMATORY CONDITIONS” (Briotech, Inc., priority 2020, published 2022):

How the values were obtained:
[1] = test system: human skin and mucous membranes, including conjunctiva; test: Safety of topically applied freshly prepared aqueous HOBr; assay type: in vivo; conditions: HOBr solution made from HOCl containing 200 ppm of Cl plus an equivalent of NaBr
Excerpt: A solution of HOBr was made by addition of an equivalent of NaBr to a solution of HOCl containing 200 ppm of Cl.

[2] = test system: spores of Bacillus subtilis; test: Inactivation of resistant spores by HOBr/HOCl solutions; assay type: cell-based; conditions: 20 seconds contact
Procedure: Hypobromous acid (HOBr) was prepared by the exposure of a slight excess of one equivalent of aqueous bromide ion (as NaBr) to one equivalent of HOCl. This solution was prepared fresh for use in tests for inactivation of resistant microbial organisms.
Exposures as brief as 20 seconds to HOBr at approximately 25 ppm were sufficient to produce LRV of 6. In the same experimental protocol HOC1 at 230 ppm was required to produce 6 LRV in the same contact time. As soon as the HOCl concentration used was below 230 ppm, the LRVs fell into the 2-4 range.

[3] = test system: S. aureus; test: Comparative antimicrobial efficacy of HOBr and HOCl solutions vs suspensions; assay type: cell-based; conditions: 40 s exposure
Procedure: (§1) FIGS. 3A-3C compare antimicrobial efficacy comparison of HOBr and HOCl solutions: E. coli, 20 s exposure (3A); S. aureus, 40 s exposure (3B); and A. niger, 40 s exposure (3C). HOBr=diagonal lines; HOCl=stippling.
(§2) Preparations of HOCl stored at 22° C. for several weeks and freshly prepared HOBr solutions were compared in their antimicrobial properties versus suspensions of E. coli, S. aureus, and A. niger (see FIG. 3).

[4] = test system: E. coli; test: as above; assay type: cell-based; conditions: 20 s exposure
Procedure: as §1, §2

[5] = test system: A. niger; test: as above; assay type: cell-based; conditions: all concentrations tested, 40 s exposure
Procedure: as §1, §2

[6] = lower concentrations (<115 ppm)

| Structure (SMILES) | adverse effects on epithelial surfaces after topical application [1] | LRV, inactivation of Bacillus subtilis spores ([2]; approximately 25 ppm) | inactivating S. aureus, comparative efficacy ([3]; high concentrations (≥115 ppm)) | inactivating S. aureus, comparative efficacy [3, 6] | inactivating E. coli, comparative efficacy ([4]; high concentrations (≥115 ppm)) | inactivating E. coli, comparative efficacy [4, 6] | LRV, inactivation of Bacillus subtilis spores ([2]; 230 ppm) | LRV, inactivation of Bacillus subtilis spores ([2]; concentration below 230 ppm) | efficacy against A. niger, comparative [5] |
| --- | --- | --- | --- | --- | --- | --- | --- | --- | --- |
| OBr [HOBr, Hypobromous acid] | without any indication of adverse effects | 6 | equally effective | markedly more effective than HOCl | equally effective | markedly more effective than HOCl |  |  |  |
| OCl [HOCl, hypochlorous acid] |  | no detectable effect | equally effective |  | equally effective |  | 6 | 2-4 | equally or more effective than HOBr |
